Source: paper PMC7717600, “Novel [(N-alkyl-3-indolylmethylene)hydrazono]oxindoles arrest cell cycle and induce cell apoptosis by inhibiting CDK2 and Bcl-2: synthesis, biological evaluation and in silico studies” (Journal of Enzyme Inhibition and Medicinal Chemistry, 2020)
Where two headings read alike, the source gives them in different places.

Experiments:
DU-145 = details: for TGI: DU-145
RPMI-8226 = details: for TGI: RPMI-8226
A-549 = assay: SRB anti-proliferative assay; type: cell-based; details: Homo sapiens, A549; A-549, SRB, mean ± SE of 3
Description: Staurosporine, a clinically used antitumor drug, was co-assayed as a reference agent for the experiment.
(§1) Examination of the cytotoxic activity for the target conjugates was carried out in accordance with the SRB colorimetric assay protocol, as described previously.
(§2) In vitro anti-proliferative activity assay
(§3) Cells at a concentration of 0.50 x
(§4) Sulfo-Rhodamine-B stain (SRB) assay.
(§5) cell to the wall of the plate.
(§6) wells were prepared for each individual dose).
(§7) Unbound dye was removed by four

PC-3 = assay: NCI SRB screening; type: cell-based, human
HOP-92 = details: for TGI: HOP-92
OVCAR-5 = details: for TGI: OVCAR-5
KM12 = details: for TGI: KM12
MDA-MB-231 = assay: SRB anti-proliferative assay; type: cell-based; details: Homo sapiens; MDA-MB-231, SRB, mean ± SE of 3
Description: (§8) All the newly prepared target conjugates (7, 8a–c, 9 and 10a–e) were investigated for the prospective growth inhibitory actions against three different cancer cell lines viz.; A-549, MDA-MB-231, and HCT-116, using the sulforhodamine B colorimetric (SRB) assay. Staurosporine, a clinically used antitumor drug, was co-assayed as a reference agent for the experiment.
as §1, §2, §3, §4, §5, §6, §7

HCT-116 = assay: SRB anti-proliferative assay; type: cell-based; details: Homo sapiens; HCT-116, SRB, mean ± SE of 3
Description: as §8, §1, §2, §3, §4, §5, §6, §7

NCI-H460 = assay: NCI SRB screening; type: cell-based, human
HCT-15 = details: for TGI: HCT-15
LOX IMVI = assay: NCI SRB screening; type: cell-based, human
SK-MEL-5 = details: for TGI: SK-MEL-5
COLO 205 = assay: NCI SRB screening; type: cell-based, human

CCCn1cc(C=NN=C2C(=O)Nc3ccc(C)cc32)c2ccccc21 [Compound 8a]
GI50 (MOLT-4; MOLT-4): 0.68 µM
TGI (MOLT-4; MOLT-4): 4.54 µM
GI % (MOLT-4; MOLT-4, 10 μM): 110%
Growth Percent (MOLT-4; MOLT-4, 1.00E-5 Molar): -9.90%
TGI (MOLT-4; MOLT-4, listed as D - 795311 / 1): 4.54E-6 Molar
TGI (DU-145): 40.60 µM
GI % (DU-145; DU-145, 10 μM): 34%
Growth Percent (DU-145; DU-145, 1.00E-5 Molar): 66.43%
TGI (DU-145; listed as D - 795311 / 1): 4.06E-5 Molar
TGI (RPMI-8226): 3.96 µM
GI % (RPMI-8226; RPMI-8226, 10 μM): 125%
Growth Percent (RPMI-8226; RPMI-8226, 1.00E-5 Molar): -24.86%
TGI (RPMI-8226; listed as D - 795311 / 1): 3.96E-6 Molar
IC50 (A-549): 7.3 ± 0.42 µM
GI50 (SR): 0.52 µM
TGI (SR): 8.72 µM
GI % (SR; 10 μM): 89%
Growth Percent (SR; 1.00E-5 Molar): 11.60%
TGI (SR; listed as D - 795311 / 1): 8.72E-6 Molar
TGI (ACHN): >100 µM
GI % (ACHN; 10 μM): 45%
Growth Percent (ACHN; 1.00E-5 Molar): 55.74%
TGI (ACHN; listed as D - 795311 / 1): > 1.00E-4 Molar
GI50 (PC-3; Homo sapiens, PC-3): 1.83 µM
TGI (PC-3; PC-3): 5.17 µM
GI % (PC-3; PC-3, 10 μM): 82%
Growth Percent (PC-3; PC-3, 1.00E-5 Molar): 17.96%
TGI (PC-3; PC-3, listed as D - 795311 / 1): 5.17E-6 Molar
TGI (HOP-92): 6.57 µM
GI % (HOP-92; HOP-92, 10 μM): 63%
Growth Percent (HOP-92; HOP-92, 1.00E-5 Molar): 37.42%
TGI (HOP-92; listed as D - 795311 / 1): 6.57E-6 Molar
TGI (OVCAR-5): 25.8 µM
GI % (OVCAR-5; OVCAR-5, 10 μM): 16%
Growth Percent (OVCAR-5; OVCAR-5, 1.00E-5 Molar): 84.60%
TGI (OVCAR-5; listed as D - 795311 / 1): 2.58E-5 Molar
TGI (KM12): 19.7 µM
GI % (KM12; KM12, 10 μM): 40%
Growth Percent (KM12; KM12, 1.00E-5 Molar): 59.92%
TGI (KM12; listed as D - 795311 / 1): 1.97E-5 Molar
TGI (HS 578T): >100 µM
GI % (HS 578T; 10 μM): 26%
Growth Percent (HS 578T; 1.00E-5 Molar): 74.02%
TGI (HS 578T; listed as D - 795311 / 1): > 1.00E-4 Molar
TGI (EKVX): >100 µM
GI % (EKVX; 10 μM): 50%
Growth Percent (EKVX; 1.00E-5 Molar): 50.45%
TGI (EKVX; listed as D - 795311 / 1): > 1.00E-4 Molar
IC50 (MDA-MB-231): 4.7 ± 0.28 µM
IC50 (HCT-116): 2.6 ± 0.17 µM
GI50 (NCI-H460; Homo sapiens, NCI-H460): 2.17 µM
TGI (NCI-H460; NCI-H460): 10.6 µM
GI % (NCI-H460; NCI-H460, 10 μM): 68%
Growth Percent (NCI-H460; NCI-H460, 1.00E-5 Molar): 32.08%
TGI (NCI-H460; NCI-H460, listed as D - 795311 / 1): 1.06E-5 Molar
TGI (HCT-15): 42.2 µM
GI % (HCT-15; HCT-15, 10 μM): 77%
Growth Percent (HCT-15; HCT-15, 1.00E-5 Molar): 23.04%
TGI (HCT-15; listed as D - 795311 / 1): 4.22E-5 Molar
GI50 (OVCAR-4; OVCAR-4): 0.93 µM
TGI (OVCAR-4; OVCAR-4): 25.60 µM
GI % (OVCAR-4; OVCAR-4, 10 μM): 58%
Growth Percent (OVCAR-4; OVCAR-4, 1.00E-5 Molar): 41.83%
TGI (OVCAR-4; OVCAR-4, listed as D - 795311 / 1): 2.56E-5 Molar
TGI (LOX IMVI): 3.06 µM
Growth Percent (LOX IMVI; 1.00E-5 Molar): 4.42%
GI50 (LOX IMVI; Homo sapiens): 1.26 µM
TGI (LOX IMVI; listed as D - 795311 / 1): 3.06E-6 Molar
TGI (SK-MEL-5): 13.50 µM
GI % (SK-MEL-5; SK-MEL-5, 10 μM): 51%
Growth Percent (SK-MEL-5; SK-MEL-5, 1.00E-5 Molar): 49.07%
TGI (SK-MEL-5; listed as D - 795311 / 1): 1.35E-5 Molar
CC50 (SK-MEL-5; human, 48 h): 39 µM
TGI (COLO 205; COLO 205): 3.06 µM
GI % (COLO 205; COLO 205, 10 μM): 116%
Growth Percent (COLO 205; COLO 205, 1.00E-5 Molar): -16.20%
TGI (COLO 205; COLO 205, listed as D - 795311 / 1): 3.06E-6 Molar
GI50 (COLO 205; Homo sapiens, COLO 205): 1.25 µM
GI % (MDA-MB-231/ATCC; MDA-MB-231, 10 μM): 66%
TGI (MDA-MB-231/ATCC; MDA-MB-231/ATCC): 7.40 µM
Growth Percent (MDA-MB-231/ATCC; MDA-MB-231/ATCC, 1.00E-5 Molar): 34.35%
TGI (MDA-MB-231/ATCC; MDA-MB-231/ATCC, listed as D - 795311 / 1): 7.40E-6 Molar
TGI (SK-OV-3; SK-OV-3): 67.10 µM
GI % (SK-OV-3; SK-OV-3, 10 μM): 12%
Growth Percent (SK-OV-3; SK-OV-3, 1.00E-5 Molar): 88.36%
GI50 (SK-OV-3; SK-OV-3, listed as D - 795311 / 1): 11.7 µM
